Columns and labels:
Format in all cases: in vivo
[1] = tested on: S. frugiperda field strain; test: Example 5C, protocol H: mortality on treated leaves, synergy by Colby equation; settings: for Mortality: field strain, 96 hours, substance and dose g a.i./ha per treatment number of Table 5B
Description: (§1) Ratios of bifenthrin to chlorantraniliprole were evaluated on various crops and target pests as indicated in the protocol disclosed Table 5A below where “Lab.” Refers to laboratory, “No. of Treat.” refers to number of treatments, and Total refers to the total number of insects tested. In each evaluation, foliar application was done, the insecticide action was contact/ingestion and 32 insects were evaluated in each treatment.
(§2) The treatment schedule shown in Table 5B was used where “dose” refers to application rate, “ratio” refers to the ratio of bifenthrin to chlorantraniliprole on an a.i. basis.
(§3) Treatments were applied inside a sprayer chamber simulating a volume of 200 l/ha over soybean plants. After a drying period, treated leaves were removed from the plants and placed inside 16 well trays containing agar solution (2%) covered with filter paper. Two 16 well trays were prepared for each treatment (32 larvae/treatment). One 3rd instar larva from laboratory strains was placed in each well over the treated leaf. Trays were kept under controlled conditions of 25° C., photoperiod of 14:10 hours, and 60% RH. Morality was evaluated after 96 hours. Mortality is defined as dead and moribund larvae.
(§4) Synergy or antagonism was determined using the Colby Equation where: […]
(§5) X is the observed result for compound A at p grams a.e./ha. Y is the observed result for compound B at q grams a.e./ha. E is the expected result for a mixture of A and B at (p+q) g a.i./ha if there is no synergy or antagonism. If the observed value for the combination of A and B is greater than E (Obs>E) then synergy is indicated. If the observed value for the combination of A and B is less than E (Obs<E) then antagonism is indicated.
(§6) Morality on S. frugiperda was evaluated according to protocols G and H (refer to Table 5B), but where two S. frugiperda strains were tested: a laboratory strain (susceptible) and a field strain in F3 generation sampled in the 2018/2019 season in Sinop-MT region using treatment numbers 5.1 to 5.10 (refer to Table 5B). The results are reported in Tables 5E (Laboratory Strain) and 5F (Filed Strain).

H. armigera = test: Example 5B, protocol B: mortality on treated leaves, synergy by Colby equation; settings: for Mortality: mean mortality after 96 hours, substance and dose g a.i./ha per treatment number of Table 5B
Description: as §1, §2, §3, §4, §5
Morality on H. armigera was evaluated according to protocol B (refer to Table 5B) using treatment numbers 5.1 to 5.13 (refer to Table 5B).

[2] = tested on: S. frugiperda laboratory strain (susceptible); test: Example 5C, protocol G: mortality on treated leaves, synergy by Colby equation; settings: 96 hours, substance and dose g a.i./ha per treatment number of Table 5B
Description: as §1, §2, §3, §4, §5, §6

D. melachantus adults = test: Example 5E, protocol F: mortality on sprayed plants after 72 hours, synergy by Colby equation; set-up: concentration or dose not given beside the values; settings: Table 5J
Description: as §1, §2, §4, §5
(§7) Morality on E. heros was evaluated according to protocols C and D (refer to Table 5B). In the evaluation method, insecticides (treatment numbers 5.1, 5.3, 5.5 to 5.8 and 5.10 to 5.13 (refer to Table 5B)) were applied over soybean plants at V2 stage inside a spray chamber. After a drying period, a first portion of the plants were infested with 10 3rd instar nymphs of E. heros per plant, with three repetitions per treatment with a total of 30 nymphs per treatment. After the drying period, a second portion of the plants were infested with 10 adults of E. heros per plant, with three repetitions per treatment with a total of 30 adults per treatment. Infested plants were maintained in a greenhouse controlled at a temperature of 26° C. Mortality was evaluated after 72 hours. The results are reported in Tables 5G (nymphs) and 5H (adults).
(§8) Morality on D. melachantus was evaluated according to protocols E and F (refer to Table 5B). In the evaluation method, insecticides (treatment numbers 5.1, 5.3, 5.5 to 5.8 and 5.10 to 5.13 (refer to Table 5B)). Evaluation was done according to the method of Example 5D. The results are reported in Tables 5I (nymphs) and 5J (adults).

E. heros adults = test: Example 5D, protocol D: mortality on sprayed soybean plants after 72 hours, synergy by Colby equation; set-up: concentration or dose not given beside the values; settings: sprayed soybean plants (V2), Table 5H
Description: as §1, §2, §4, §5, §7

[3] = tested on: D. melachantus 3rd instar nymphs; test: Example 5E, protocol E: mortality on sprayed plants after 72 hours, synergy by Colby equation; set-up: Mortality: concentration or dose not given beside the values; settings: for Mortality: D. melachantus nymphs, sprayed plants, after 72 hours, Table 5I
Description: as §1, §2, §4, §5, §7, §8

[4] = tested on: E. heros 3rd instar nymphs; test: Example 5D, protocol C: mortality on sprayed soybean plants after 72 hours, synergy by Colby equation; settings: for Mortality: E. heros 3rd instar nymphs, sprayed soybean plants (V2), after 72 hours, Table 5G
Description: as §1, §2, §4, §5, §7

C. includens = test: Example 5A, protocol A: mortality on treated leaves, synergy by Colby equation; settings: for Mortality: mean mortality after 96 hours, substance and dose g a.i./ha per treatment number of Table 5B
Description: as §1, §2, §3, §4, §5
Morality on C. includens was evaluated according to protocol A (refer to Table 5B) using treatment numbers 5.1, 5.3, 5.5 to 5.8 and 5.10 to 5.13 (refer to Table 5B). The results are reported in Table 5C below where mortality is the mean mortality, the E value was calculated by the Colby equation, and the synergy value is determined by dividing the mean mortality (%) by the expected value (E).

Compound `CNC(=O)c1cc(Cl)cc(C)c1NC(=O)c1cc(Br)nn1-c1ncccc1Cl` [Treatment 5.2, Chlorantraniliprole] has a Mortality ([1]; listed as 5.2) of 40.6%, a Mortality (H. armigera; listed as 5.2) of 84.4% and a Mortality ([2]; listed as 5.2) of 96.9%.
In the case of `Cc1c(COC(=O)[C@@H]2[C@H](/C=C(\Cl)C(F)(F)F)C2(C)C)cccc1-c1ccccc1` (racemic) [Treatment 5.8, Bifenthrin], the Mortality (D. melachantus adults; listed as 5.8) is reported as 100%, the Mortality (E. heros adults; listed as 5.8) is reported as 80.0% and the Mortality ([3]; listed as 5.8) is reported as 100%. For the same compound, the Mortality ([1]; listed as 5.8) was 43.8%, the Mortality (H. armigera; listed as 5.8) was 9.4% and the Mortality ([2]; listed as 5.8) was 93.8%. The Mortality ([4]; listed as 5.8) was 85.2% and the Mortality (C. includens; listed as 5.8) was 78.1%.
With `Cc1c(COC(=O)[C@@H]2[C@H](/C=C(\Cl)C(F)(F)F)C2(C)C)cccc1-c1ccccc1` (racemic) [Bifenthrin, 2-methylbiphenyl-3-ylmethyl (Z)-(1RS)-cis-3-(2-chloro-3,3,3-trifluoroprop-1-enyl)-2,2-dimethyl cyclopropanecarboxylate] the “control of S. frugiperda, in words” value ([1]; lower doses, especially on the field strain) was “lower control” and the “H. armigera control, in words” value (H. armigera; even at a higher dose of 60 g a.i./ha, resistance to pyrethroids) was “lower control”.
`Cc1c(COC(=O)[C@@H]2[C@H](/C=C(\Cl)C(F)(F)F)C2(C)C)cccc1-c1ccccc1` (racemic) [Treatment 5.5, Bifenthrin] showed a Mortality (D. melachantus adults; listed as 5.5) of 39.3%, a Mortality (E. heros adults; listed as 5.5) of 3.3% and a Mortality ([3]; listed as 5.5) of 56.7%. For the same compound, the Mortality ([1]; listed as 5.5) was 3.1%, the Mortality (H. armigera; listed as 5.5) was 0% and the Mortality ([2]; listed as 5.5) was 53.1%. For the same compound, the Mortality ([4]; listed as 5.5) was 38.9% and the Mortality (C. includens; listed as 5.5) was 34.4%.
In the case of `CNC(=O)c1cc(Cl)cc(C)c1NC(=O)c1cc(Br)nn1-c1ncccc1Cl` [Chlorantraniliprole, 5-bromo-N-[4-chloro-2-methyl-6-(methylcarbamoyl)phenyl]-2-(3-chloropyridin-2-yl)pyrazole-3-carboxamide], the “control of D. melacanthus, in words” value ([3]; nymphs and adults (protocols E and F)) is reported as “did not control”, the “H. armigera control, in words” value (H. armigera; 7.5 g a.i./ha) is reported as “most effective” and the “control of E. heros, in words” value ([4]; nymphs and adults (protocols C and D)) is reported as “did not control”. For the same compound, the “control of C. includens, in words” value (C. includens; 7.5 g a.i./ha) was “most effective”.
Compound `Cc1c(COC(=O)[C@@H]2[C@H](/C=C(\Cl)C(F)(F)F)C2(C)C)cccc1-c1ccccc1` (racemic) [Treatment 5.6, Bifenthrin] has a Mortality (D. melachantus adults; listed as 5.6) of 70.0%, a Mortality (E. heros adults; listed as 5.6) of 30.0% and a Mortality ([3]; listed as 5.6) of 70.0%. For the same compound, the Mortality ([1]; listed as 5.6) was 15.6%, the Mortality (H. armigera; listed as 5.6) was 0% and the Mortality ([2]; listed as 5.6) was 78.1%. The Mortality ([4]; listed as 5.6) was 43.3% and the Mortality (C. includens; listed as 5.6) was 68.8%.
Work on `Cc1c(COC(=O)[C@@H]2[C@H](/C=C(\Cl)C(F)(F)F)C2(C)C)cccc1-c1ccccc1` (racemic) [Treatment 5.4, Bifenthrin] yielded a Mortality ([1]; listed as 5.4) of 3.1%, a Mortality (H. armigera; listed as 5.4) of 0% and a Mortality ([2]; listed as 5.4) of 34.4%.
Work on `CNC(=O)c1cc(Cl)cc(C)c1NC(=O)c1cc(Br)nn1-c1ncccc1Cl` [Treatment 5.3, Chlorantraniliprole] yielded a Mortality (D. melachantus adults) of 0%, a Mortality (E. heros adults) of 3.3% and a Mortality [3] of 7.0%. It also gave a Mortality ([1]; listed as 5.3) of 59.4%, a Mortality (H. armigera; listed as 5.3) of 100% and a Mortality ([2]; listed as 5.3) of 100%. It also gave a Mortality [4] of 0% and a Mortality (C. includens) of 100%.
`Cc1c(COC(=O)[C@@H]2[C@H](/C=C(\Cl)C(F)(F)F)C2(C)C)cccc1-c1ccccc1` (racemic) [Treatment 5.7, Bifenthrin] gave a Mortality (D. melachantus adults; listed as 5.7) of 100%, a Mortality (E. heros adults; listed as 5.7) of 56.7% and a Mortality ([3]; listed as 5.7) of 100%. For the same compound, the Mortality ([1]; listed as 5.7) was 43.8%, the Mortality (H. armigera; listed as 5.7) was 0% and the Mortality ([2]; listed as 5.7) was 96.9%. It also gave a Mortality ([4]; listed as 5.7) of 76.7% and a Mortality (C. includens; listed as 5.7) of 78.1%.

— US20220386608A1, “INSECTICIDAL MIXTURES OF BIFENTHRIN AND CHLORANTRANILIPROLE” (priority 2019, published 2022)
